In one data set the test system is D458. In words: MTT assay, 48 h exposure, D458 MB cells. Conditions: for IC50: MTT, 48 h exposure, mean ± SEM. In kind it is cell-based, human. As to the method:
(§1) HDF (3000 cells), C8-D1A (5000 cells), D458 (5000 cells), DAOY (2000 cells), HD-MB03 (10,000 cells) and CHLA-01-Med (10,000 cells) were seeded at an approximate confluency of 50% in 96-well plates (Corning Inc., Corning, NY, USA) in 100 µL medium per well. A range from 50 nM to 150 µM of every drug was tested. The effects of the antiangiogenic compounds were measured using a 3-[4,5-dimethylthiazol-2yl]-diphenyltetrazolium bromide (MTT) colorimetric assay (Sigma, Lyon, France) according to the manufacturer’s instructions. When applicable, IC50 was calculated using the nonlinear regression method of the Prism 5 software (Graphpad Software Inc., San Diego, CA, USA). […] An MTT assay was conducted as described above to assess the fitness of the cells.
(Tetrazolium dyes change colour on reduction, which living cells bring about.)

The test system of data set [1] is HDF. In words: MTT assay, 48 h exposure, human dermal fibroblasts. In kind it is cell-based. As to the method:
as §1

In the next data set the test system is C8-D1A. The data set is described as follows: MTT assay, 48 h exposure, murine primary astrocytes. In kind it is cell-based. As to the method:
as §1

Another data set has as its system CHLA-01-Med. In words: MTT assay, 48 h exposure, CHLA-01-Med MB cells. In kind it is cell-based, human. As to the method: as §1
The subject of data set [2] is HDF. In words: Cell viability, propidium iodine incorporation, HDF. In kind it is cell-based, human. Conditions: 48 h; axitinib, cabozantinib 5 µM, etoposide 1 µM. As to the method: (§2) Cell viability assays were conducted using a propidium iodine incorporation technique with an ADAM-sHIT automated cell counter (NanoEnTek, Gyeonggi-do, Korea) according to the manufacturer’s protocol.

A further data set deals with C8-D1A astrocytes. In words: Cell viability, propidium iodine incorporation, C8-D1A. As to conditions: 48 h; axitinib, cabozantinib, sunitinib 5 µM, etoposide 1 µM. In kind it is cell-based, murine. As to the method:
as §2

The test system of another data set is HD-MB03. The data set is described as follows: MTT assay, 48 h exposure, HD-MB03 MB cells. In kind it is cell-based, human. As to conditions: for IC50: MTT, 48 h exposure, mean ± SEM. As to the method:
as §1

A further data set has as its system DAOY. In words: MTT assay, 48 h exposure, DAOY MB cells. In kind it is cell-based, human. As to conditions: for IC50: MTT, 48 h exposure, mean ± SEM. As to the method:
as §1

The subject of a further data set is MB cells. The data set is described as follows: Cell viability, propidium iodine incorporation, MB cells. In kind it is cell-based, human. As to conditions: 48 h, 5 µM. As to the method:
as §2

The structures appear in SMILES notation. Read-outs that look alike come from different tables or passages of the source.

In general, IC50 refers to the concentration needed to halve the response being measured. Consider `COc1cc2nccc(Oc3ccc(NC(=O)C4(C(=O)Nc5ccc(F)cc5)CC4)cc3)c2cc1OC` [Cabozantinib, cabozantinib], for which the IC50 was 5.1 ± 1.6 µM in the data set with D458 (Homo sapiens, Table 1); 4.1 ± 1.9 µM with HDF [1] (Homo sapiens, HDF, Table 1, normal cells, mean ± SEM); 4 ± 2.2 µM in the data set with C8-D1A (Mus musculus, C8-D1A, Table 1, normal cells, mean ± SEM, read-out: IC50 (µM) C8D1A); 11.4 ± 2.1 µM with CHLA-01-Med (Homo sapiens, Table 1, MTT, 48 h exposure, mean ± SEM); 0.78 ± 0.2 µM in the data set with HD-MB03 (Homo sapiens, HD-MB03, Table 1); 8.3 ± 1.2 µM with DAOY (Homo sapiens, Daoy, Table 1). For the same compound, in the data set with D458 (ratio IC50 C8-D1A / IC50 D458), the “Specificity Index relative to C8D1A, D458” value amounted to 0.78. Moreover, the “Specificity Index relative to HDF, D458” value in the data set with D458 (ratio IC50 HDF / IC50 D458) is 0.80. For the same compound, the “Specificity Index relative to C8D1A, CHLA-01-Med” value with CHLA-01-Med (ratio IC50 C8-D1A / IC50 CHLA-01-Med) worked out at 0.35. For the same compound, the “Specificity Index relative to HDF, CHLA-01-Med” value in the data set on CHLA-01-Med (ratio IC50 HDF / IC50 CHLA-01-Med) worked out at 0.36. For the same compound, the “viability of HDF normal cells” value with HDF [2] is given as “no effect on the viability”. Also, the “viability of C8-D1A normal cells” value with C8-D1A astrocytes is on record as “no effect on the viability”. For the same compound, the “Specificity Index relative to C8D1A, HDMB” value with HD-MB03 (ratio IC50 C8-D1A / IC50 HD-MB03) was 5.13. Further, the “Specificity Index relative to HDF, HD-MB03” value in the data set with HD-MB03 (ratio IC50 HDF / IC50 HD-MB03) turned out to be 5.26. Also, the “Specificity Index relative to C8D1A, DAOY” value in the data set on DAOY (ratio IC50 C8-D1A / IC50 DAOY) amounted to 0.48. The “Specificity Index relative to HDF, DAOY” value with DAOY (ratio IC50 HDF / IC50 DAOY) worked out at 0.49. The “viability of MB cells” value in the data set on MB cells is “decreased the viability of most MB cells”.

As for `N.N.O=C([O-])C1(C(=O)[O-])CCC1.[Pt+2]` [Carboplatin, carboplatin], the IC50 is greater than 20 µM in the data set on D458 (Table 3); greater than 20 µM in the data set with HDF [1] (Table 3, mean ± SEM); greater than 20 µM in the data set with C8-D1A (Table 3, mean ± SEM); greater than 20 µM with HD-MB03 (Table 3); greater than 20 µM in the data set on DAOY (Table 3).
